Data published in the supplement of paper PMC10307832.

Assays:
Assay in all cases: relative viability (nuclei count vs DMSO), 5 days (fraction); higher = more cells survive
[1] = compound: CN1CCN(CC1)C2=CC(=C(C=C2)NC3=NC(=C(S3)C(=O)C4=C(C=CC=C4Cl)Cl)N)OC [XMD14-99] + CC(=O)Nc1cccc(-n2c(=O)n(C3CC3)c(=O)c3c(Nc4ccc(I)cc4F)n(C)c(=O)c(C)c32)c1 [Trametinib] (partner 0.02 µM)
Outline: (§1)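 Relative viability divides the nuclei count in treated wells by that in vehicle wells. Lung cancer cell lines were seeded in 1536-well plates, dosed by pin tool the next day, and fixed and stained after 5 days in one step with final 0.05% Triton X-100, 1% formaldehyde and 1 ug/ml Hoechst. Dosing was a single drug or a fixed anchor-drug dose plus five library-drug doses (not always all listed) in √10 steps, and values are medians of duplicate plates imaged at 4×.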

[2] = compound: CN1CCN(CC1)C2=CC(=C(C=C2)NC3=NC(=C(S3)C(=O)C4=C(C=CC=C4Cl)Cl)N)OC [XMD14-99] + N=C(N)NC(=N)NCCc1ccccc1 [Phenformin] (partner 250 µM)
Outline: as §1

[3] = compound: CN1CCN(CC1)C2=CC(=C(C=C2)NC3=NC(=C(S3)C(=O)C4=C(C=CC=C4Cl)Cl)N)OC [XMD14-99] + Nc1ncn([C@H]2C[C@H](O)[C@@H](CO)O2)c(=O)n1 [Decitabine] (partner 2 µM)
Outline: as §1

[4] = compound: N[C@@H]1CCCN(c2c(/C=C3\SC(=O)NC3=O)cccc2-c2ccccc2)C1 [AZD1208] + CC1(C)CCC(c2ccc(Cl)cc2)=C(CN2CCN(c3ccc(C(=O)NS(=O)(=O)c4ccc(N[C@H](CCN5CCOCC5)CSc5ccccc5)c(S(=O)(=O)C(F)(F)F)c4)cc3)CC2)C1 [Navitoclax] (partner 0.5 µM)
Outline: as §1

Cell Line	relative viability ([1]; first compound 0.08 µM)	relative viability ([1]; first compound 0.8 µM)	relative viability ([1]; first compound 2.53 µM)	relative viability ([1]; first compound 8 µM)	relative viability ([2]; first compound 0.08 µM)	relative viability ([2]; first compound 0.8 µM)	relative viability ([2]; first compound 2.53 µM)	relative viability ([2]; first compound 8 µM)	relative viability ([3]; first compound 0.08 µM)	relative viability ([3]; first compound 0.8 µM)	relative viability ([3]; first compound 2.53 µM)	relative viability ([3]; first compound 8 µM)	relative viability ([4]; first compound 0.08 µM)	relative viability ([4]; first compound 0.253 µM)	relative viability ([4]; first compound 0.8 µM)	relative viability ([4]; first compound 2.53 µM)	relative viability ([4]; first compound 8 µM)
NCI-H1355	0.439	0.434	0.355	0.33	0.518	0.473	0.424	0.36	0.381	0.339	0.343	0.346	0.963	0.861	0.785	0.932	0.853
HOP-62	0.382	0.419	0.412	0.368	0.707	0.648	0.643	0.547	0.23	0.226	0.237	0.273	1.05	0.886	1.05	0.969	1.07
NCI-H2087	0.174	0.176	0.162	0.122	0.445	0.408	0.346	0.2	0.282	0.264	0.234	0.192	1.05	1.07	1.03	0.91	0.836
